For this test, the target named is T1, HPK1 (Homo sapiens, UniProt Q92918).
T1 construct: A HiBiT tag was introduced by CRISPR on the N terminus of HPK1 in Jurkat cells; host or cells: Jurkat cells (ATCC TIB-152), monoclonal line with CRISPR knock-in of HiBiT at the endogenous HPK1 locus
Description: HPK1 Cellular HiBit Degradation Assay. The test is classed as cell-based. To be noted: HiBiT HPK1 Jurkat cells, 24 hrs; for DC50: concentration at which 50% of HPK1 was remaining, read-out: DC50 Category; for Dmax: Jurkat, read-out: Dmax Category. The essentials:
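Jurkat cells with CRISPR N-terminal HiBiT-tagged endogenous HPK1 treated 24 h at 37 °C with 11-point, 3.16-fold dilutions (10 uM to 0.1 nM final). HiBiT lytic luminescence gives % HPK1 remaining versus DMSO, with parental cells as background. Four-parameter fit yields DC50; Dmax = 100 minus lowest % remaining.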
On the technique in general: HiBiT is a short tag that completes a luciferase, so light tracks the accessible tagged protein.

The mark [1] stands for this setting: maximum degradation vs DMSO vehicle control.

A value given as a limit tells only on which side of the number the result lay.

T1 sequence (Q92918 whole entry): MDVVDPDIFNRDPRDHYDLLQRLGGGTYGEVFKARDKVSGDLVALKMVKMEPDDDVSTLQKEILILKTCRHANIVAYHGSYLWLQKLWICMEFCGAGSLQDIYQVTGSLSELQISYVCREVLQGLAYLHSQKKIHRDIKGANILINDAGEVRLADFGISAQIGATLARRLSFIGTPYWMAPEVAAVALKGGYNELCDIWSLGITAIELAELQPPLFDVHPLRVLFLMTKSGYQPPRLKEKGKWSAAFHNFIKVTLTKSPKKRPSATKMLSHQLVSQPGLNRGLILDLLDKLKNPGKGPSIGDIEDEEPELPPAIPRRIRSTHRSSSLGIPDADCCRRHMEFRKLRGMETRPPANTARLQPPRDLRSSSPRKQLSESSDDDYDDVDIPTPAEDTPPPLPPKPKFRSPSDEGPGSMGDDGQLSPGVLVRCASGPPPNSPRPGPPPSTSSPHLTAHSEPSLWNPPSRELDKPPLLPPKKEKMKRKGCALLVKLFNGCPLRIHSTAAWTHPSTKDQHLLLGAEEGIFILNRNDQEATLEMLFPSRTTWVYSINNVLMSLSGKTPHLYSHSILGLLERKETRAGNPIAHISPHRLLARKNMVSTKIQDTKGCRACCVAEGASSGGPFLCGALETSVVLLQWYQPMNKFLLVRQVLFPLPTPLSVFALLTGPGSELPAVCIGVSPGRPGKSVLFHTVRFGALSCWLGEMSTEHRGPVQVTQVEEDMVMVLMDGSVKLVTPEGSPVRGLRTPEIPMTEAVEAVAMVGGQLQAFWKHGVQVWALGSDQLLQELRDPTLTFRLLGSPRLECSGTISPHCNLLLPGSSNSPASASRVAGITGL

Usually DC50 stands for the concentration at which degradation of the target reaches its halfway point. What is called Dmax is the largest share of the target that was removed. In the case of `CC(C)n1cnc2cc(-c3ccc4c(c3)N([C@H]3C[C@@H](N5CCCCC5)C3)C(=O)C43CCN(C(=O)[C@@H]4CCCN(C(=O)C5CCN(c6ccc(C7CCC(=O)NC7=O)cn6)CC5)C4)CC3)nc(NC3CC3)c21` (mixture of isomers) [Example 264, (3RS)-3-(6-{4-[(3R)-3-({6-[4-(cyclopropylamino)-3-(propan-2-yl)-3H-imidazo[4,5-c]pyridin-6-yl]-2-oxo-1-[(1S,3S)-3-(piperidin-1-yl)cyclobutyl]-1,2-dihydrospiro[indole-3,4′-piperidin]-1′-yl}carbonyl)piperidine-1-carbonyl]piperidin-1-yl}pyridin-3-yl)piperidine-2,6-dione], the DC50 is below 100 nM. Besides, the Dmax under setting [1] lay within 70 to 85%.

Take `CC(C)n1cnc2cc(-c3ccc4c(c3)N([C@H]3C[C@@H](N5CCCCC5)C3)C(=O)C43CCN(C(=O)c4cc(C(=O)N5CCN(c6ccc7c(c6)C(=O)N(C6CCC(=O)NC6=O)C7=O)CC5)n(C)n4)CC3)nc(Nc3ccccc3F)c21` (mixture of isomers) [Example 146, 2-[(3RS)-2,6-dioxopiperidin-3-yl]-5-(4-{3-[(6-{4-[(2-fluorophenyl)amino]-3-(propan-2-yl)-3H-imidazo[4,5-c]pyridin-6-yl}-2-oxo-1-[(1S,3S)-3-(piperidin-1-yl)cyclobutyl]-1,2-dihydrospiro[indole-3,4′-piperidin]-1′-yl)carbonyl]-1-methyl-1H-pyrazole-5-carbonyl}piperazin-1-yl)-2,3-dihydro-1H-isoindole-1,3-dione]: the DC50 lay within 100 to 500 nM. Besides, under setting [1], the Dmax lay within 70 to 85%.

For the compound `CC(C)n1cnc2cc(-c3ccc4c(c3)N([C@H]3C[C@@H](N5C6COCC5C6)C3)C(=O)C43CCN(C(=O)C4(C)CCN(C(=O)C5CCN(c6ccc(C7CCC(=O)NC7=O)cn6)CC5)CC4)CC3)nc(NC3CC3)c21` (mixture of isomers) [Example 218, (3RS)-3-(6-{4-[4-({6-[4-(cyclopropylamino)-3-(propan-2-yl)-3H-imidazo[4,5-c]pyridin-6-yl]-2-oxo-1-[(1S,3S)-3-{3-oxa-6-azabicyclo[3.1.1]heptan-6-yl}cyclobutyl]-1,2-dihydrospiro[indole-3,4′-piperidin]-1′-yl}carbonyl)-4-methylpiperidine-1-carbonyl]piperidin-1-yl}pyridin-3-yl)piperidine-2,6-dione], the DC50 was in the range of 100 to 500 nM. Under setting [1], the Dmax was 50 to 70%.

For the compound `CC(C(=O)N1CCC2(CC1)C(=O)N([C@H]1C[C@@H](N3CCCCC3)C1)c1cc(-c3cc4ncn(C(C)C)c4c(NC4CC4)n3)ccc12)C1CCN(C(=O)C2CCN(c3ccc(C4CCC(=O)NC4=O)cn3)CC2)CC1` (mixture of isomers) [Example 187, (3RS)-3-(6-{4-[4-(1-{6-[4-(cyclopropylamino)-3-(propan-2-yl)-3H-imidazo[4,5-c]pyridin-6-yl]-2-oxo-1-[(1S,3S)-3-(piperidin-1-yl)cyclobutyl]-1,2-dihydrospiro[indole-3,4′-piperidin]-1′-yl}-1-oxopropan-2-yl)piperidine-1-carbonyl]piperidin-1-yl}pyridin-3-yl)piperidine-2,6-dione], the DC50 was below 100 nM. The Dmax under setting [1] fell in the range of 70 to 85%.

In the case of `CC(C)n1cnc2cc(-c3ccc4c(c3)N([C@H]3C[C@@H](N5CCCCC5)C3)C(=O)C43CCN(C(=O)C4(C)CCN(C(=O)C5CCN(c6ccc(C7CCC(=O)NC7=O)cc6)CC5)CC4)CC3)nc(NC3CC3)c21` (mixture of isomers) [Example 111, (3RS)-3-(4-{4-[4-({6-[4-(cyclopropylamino)-3-(propan-2-yl)-3H-imidazo[4,5-c]pyridin-6-yl]-2-oxo-1-[(1S,3S)-3-(piperidin-1-yl)cyclobutyl]-1,2-dihydrospiro[indole-3,4′-piperidin]-1′-yl}carbonyl)-4-methylpiperidine-1-carbonyl]piperidin-1-yl}phenyl)piperidine-2,6-dione], the DC50 is below 100 nM. Under setting [1], the Dmax fell in the range of 70 to 85%.

Regarding `CC(C)n1cnc2cc(-c3ccc4c(c3)N([C@H]3C[C@@H](N5CCCCC5)C3)C(=O)C43CCN(C(=O)C4CCN(C(=O)C5CCN(c6ccc(N7CCC(=O)NC7=O)cn6)CC5)CC4)CC3)nc(Nc3ccncc3F)c21` [Example 81, 1-[6-(4-{4-[(6-{4-[(3-Fluoropyridin-4-yl)amino]-3-(propan-2-yl)-3H-imidazo[4,5-c]pyridin-6-yl}-2-oxo-1-[(1S,3S)-3-(piperidin-1-yl)cyclobutyl]-1,2-dihydrospiro[indole-3,4′-piperidin]-1′-yl)carbonyl]piperidine-1-carbonyl}piperidin-1-yl)pyridin-3-yl]-1,3-diazinane-2,4-dione], the DC50 was below 100 nM. The Dmax under setting [1] fell in the range of 50 to 70%.

With `CC(C)n1cnc2cc(-c3ccc4c(c3)N(C3CC(N5CCCCC5)C3)C(=O)C43CCN(C(=O)C4CCC(C(=O)N5CCC(COc6ccc(C7CCC(=O)NC7=O)cc6)CC5)CC4)CC3)nc(NC3CC3)c21` (racemic) [Example 230, (3RS)-3-[4-({1-[(1R,4R)-4-({6-[4-(cyclopropylamino)-3-(propan-2-yl)-3H-imidazo[4,5-c]pyridin-6-yl]-2-oxo-1-[(1S,3S)-3-(piperidin-1-yl)cyclobutyl]-1,2-dihydrospiro[indole-3,4′-piperidin]-1′-yl}carbonyl)cyclohexanecarbonyl]piperidin-4-yl}methoxy)phenyl]piperidine-2,6-dione], the DC50 was below 100 nM. Also, the “Dmax Category” value under setting [1] was “C (C: >50%-<70%)”.

In the case of `CC(C)n1cnc2cc(-c3ccc4c(c3)N([C@H]3C[C@@H](N5CCCCC5)C3)C(=O)C43CCN(C(=O)C4(C)CCN(C(=O)C5CCN(c6ccc(C7CCC(=O)NC7=O)cn6)CC5)CC4)CC3)nc(Oc3ccccc3F)c21` (stereo partly drawn) [Example 164, 3-(6-{4-[4-({6-[4-(2-fluorophenoxy)-3-(propan-2-yl)-3H-imidazo[4,5-c]pyridin-6-yl]-2-oxo-1-[(1S,3S)-3-(piperidin-1-yl)cyclobutyl]-1,2-dihydrospiro[indole-3,4′-piperidin]-1′-yl}carbonyl)-4-methylpiperidine-1-carbonyl]piperidin-1-yl}pyridin-3-yl)piperidine-2,6-dione], the DC50 lay in the range of 100 to 500 nM. Moreover, the Dmax under setting [1] was above 85%.

`CC(C)n1cnc2cc(-c3ccc4c(c3)N([C@H]3C[C@@H](N5CCCCC5)C3)C(=O)C43CCN(C(=O)[C@@H]4CCCN(C(=O)[C@H]5CC[C@H](Oc6ccc(C7CCC(=O)NC7=O)cc6)CC5)C4)CC3)nc(NC3CC3)c21` (mixture of isomers) [Example 234, (3RS)-3-(4-{[(1R,4R)-4-[(3R)-3-({6-[4-(cyclopropylamino)-3-(propan-2-yl)-3H-imidazo[4,5-c]pyridin-6-yl]-2-oxo-1-[(1S,3S)-3-(piperidin-1-yl)cyclobutyl]-1,2-dihydrospiro[indole-3,4′-piperidin]-1′-yl}carbonyl)piperidine-1-carbonyl]cyclohexyl]oxy}phenyl)piperidine-2,6-dione]: the DC50 was below 100 nM. Moreover, under setting [1], the Dmax was in the range of 70 to 85%.

In the case of `CC(C)n1cnc2cc(-c3ccc4c(c3)N([C@H]3C[C@@H](N5CCCCC5)C3)C(=O)C43CCN(C(=O)C4CCN(C(=O)C5CCN(c6ccc(C7CCC(=O)NC7=O)nc6)CC5)CC4)CC3)nc(Nc3ccccc3F)c21` (stereo partly drawn) [Example 85, 3-[5-(4-{4-[(6-{4-[(2-fluorophenyl)amino]-3-(propan-2-yl)-3H-imidazo[4,5-c]pyridin-6-yl}-2-oxo-1-[(1S,3S)-3-(piperidin-1-yl)cyclobutyl]-1,2-dihydrospiro[indole-3,4′-piperidin]-1′-yl)carbonyl]piperidine-1-carbonyl}piperidin-1-yl)pyridin-2-yl]piperidine-2,6-dione], the DC50 is below 100 nM. For the same compound, the Dmax under setting [1] fell in the range of 70 to 85%.

For `CC(C)n1cnc2cc(-c3ccc4c(c3)N([C@H]3C[C@@H](N5CCCCC5)C3)C(=O)C43CCN(C(=O)[C@@H]4CCN(C(=O)[C@H]5CC[C@H](Nc6ccc(C7CCC(=O)NC7=O)cc6)CC5)C4)CC3)nc(Nc3ccccc3F)c21` (mixture of isomers) [Example 3, (3RS)-3-(4-{[(1R,4R)-4-[(3R)-3-[(6-{4-[(2-fluorophenyl)amino]-3-(propan-2-yl)-3H-imidazo[4,5-c]pyridin-6-yl}-2-oxo-1-[(1S,3S)-3-(piperidin-1-yl)cyclobutyl]-1,2-dihydrospiro[indole-3,4′-piperidin]-1′-yl)carbonyl]pyrrolidine-1-carbonyl]cyclohexyl]amino}phenyl)piperidine-2,6-dione], the DC50 is below 100 nM. Under setting [1], the Dmax was above 85%.

Regarding `CC(C)n1cnc2cc(-c3ccc4c(c3)N([C@H]3C[C@@H](N5CCCCC5)C3)C(=O)C43CCN(C(=O)C4CCN(C(=O)[C@H]5CC[C@H](Oc6ccc(C7CCC(=O)NC7=O)cn6)CC5)CC4)CC3)nc(Nc3ccccc3F)c21` (mixture of isomers) [Example 62, (3RS)-3-(6-{[(1R,4R)-4-{4-[(6-{4-[(2-fluorophenyl)amino]-3-(propan-2-yl)-3H-imidazo[4,5-c]pyridin-6-yl}-2-oxo-1-[(1S,3S)-3-(piperidin-1-yl)cyclobutyl]-1,2-dihydrospiro[indole-3,4′-piperidin]-1′-yl)carbonyl]piperidine-1-carbonyl}cyclohexyl]oxy}pyridin-3-yl)piperidine-2,6-dione], the DC50 is 100 to 500 nM. The Dmax under setting [1] was in the range of 50 to 70%.

For `CC(C)n1cnc2cc(-c3ccc4c(c3)N([C@H]3C[C@@H](N5CCCCC5)C3)C(=O)C43CCN(C(=O)C4CCN(C(=O)CC5CCN(c6ccc(C7CCC(=O)NC7=O)cn6)CC5)CC4)CC3)nc(NC3CC3)c21` (mixture of isomers) [Example 93, (3RS)-3-[6-(4-{2-[4-({6-[4-(cyclopropylamino)-3-(propan-2-yl)-3H-imidazo[4,5-c]pyridin-6-yl]-2-oxo-1-[(1S,3S)-3-(piperidin-1-yl)cyclobutyl]-1,2-dihydrospiro[indole-3,4′-piperidin]-1′-yl}carbonyl)piperidin-1-yl]-2-oxoethyl}piperidin-1-yl)pyridin-3-yl]piperidine-2,6-dione], the DC50 is below 100 nM. The Dmax under setting [1] is 50 to 70%.

These data come from patent publication US12091426B2, “Bifunctional degraders of hematopoietic progenitor kinase and therapeutic uses thereof” (Nurix Therapeutics, Inc., priority 2021, dated 2024).
